The text below walks through data of ChEMBL document CHEMBL1201862, “PubChem BioAssay data set” (2004).

Holding throughout (experiment): inhibition of tumour cell growth, NCI panel, 48 h
Assay [1] has as its system NCI/ADR-RES.
Assay [2] concerns K562.
The test system of assay [3] is RPMI-8226.
Assay [4] relates to SW-620.
The test system of assay [5] is A498.
For assay [6], the system named is A549.
The test system of assay [7] is PC-3.
Assay [8] deals with U-251.
Assay [9] relates to T47D.
The test system of assay [10] is HCC 2998.
For assay [11], the system named is BT-549.
Assay [12] concerns OVCAR-4.
For assay [13], the system named is NCI-H23.
The test system of assay [14] is SR.
Assay [15] relates to TK-10.
The test system of assay [16] is NCI-H522.
The subject of assay [17] is SNB-75.
The test system of assay [18] is LOX IMVI.
The test system of assay [19] is HOP-62.

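Each compound was tested at five concentrations against cells in 96-well plates for 48 hours. Abbreviation: GI50, concentration required for 50% inhibition of growth.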 Activity calls are given as the source filed them. Cut-off read from the data, not from the text of the source: active = GI50 up to about 1.1 µM and inactive = higher.

As for `CSc1nc(C)c(CCOC(C)=O)c(Cl)n1`, the GI50 in assay [1] is > 100 µM (inactive); in assay [2], > 100 µM (inactive); in assay [3] it was > 100 µM (inactive); in assay [4], > 100 µM (inactive); in [5], 48 µM (inactive); in assay [6], > 100 µM (inactive). In addition, the GI50 in [7], in assay [8], in assay [9], in assay [10], in [11] and in [12] was > 100 µM (inactive) each time. Besides, the GI50 in [13], in assay [14], in assay [15], in assay [16], in assay [17] and in [18] was > 100 µM (inactive) throughout. Further, in assay [19], the GI50 was > 100 µM (inactive).
In the case of `O=C1c2c(O)ccc(O)c2C(=O)c2c(NCCNC(=O)C(O)C(O)C(O)C(O)CO)ccc(NCCNC(=O)C(O)C(O)C(O)C(O)CO)c21` (stereo unspecified), the GI50 in assay [1] is 0.133 µM (active); in [2] it was 0.0104 µM (active); in assay [3] it was < 0.01 µM (active); in assay [4] it was 0.0213 µM (active); in assay [5], 0.149 µM (active); in [6] it was < 0.01 µM (active). Besides, the GI50 in assay [7] was 0.131 µM (active); in [8], 0.0109 µM (active); in assay [9], 0.0102 µM (active); in assay [10], 0.135 µM (active); in [11], 0.121 µM (active); in assay [12], 0.18 µM (active). The GI50 in assay [13] is 0.0178 µM (active); in assay [14] it was < 0.01 µM (active); in assay [15], 0.161 µM (active); in [16], < 0.02 µM (active); in assay [17] it was 0.0356 µM (active); in assay [18] it was 0.0134 µM (active). In [19], the GI50 is 0.011 µM (active).
For the compound `CCOC(=O)c1cn2c(n1)sc1cc(Cl)ccc12`, the GI50 in assay [1] was 19.6 µM (inactive); in assay [2] it was 2.86 µM (inactive); in assay [3] it was 8.41 µM (inactive); in assay [4], 4.75 µM (inactive); in assay [5] it was 33.6 µM (inactive); in assay [6], 15.6 µM (inactive). For the same compound, the GI50 in assay [7] is 30.6 µM (inactive); in assay [8], 14.1 µM (inactive); in assay [9], 57.8 µM (inactive); in [10], > 100 µM (inactive); in assay [11], > 100 µM (inactive); in assay [12] it was > 100 µM (inactive). In addition, the GI50 is 62.2 µM (inactive) in assay [13]; 1.55 µM (inactive) in assay [14]; > 100 µM (inactive) in assay [15]; 31.2 µM (inactive) in assay [16]; 31 µM (inactive) in [17]; 7.78 µM (inactive) in assay [18]. In assay [19], the GI50 is 18.1 µM (inactive).
Turning to `COc1cccc(C2c3cc4c(cc3OC(C)(O)C2C)OCO4)c1O` (stereo unspecified), the GI50 in [1] was 2.13 µM (inactive); in assay [2] it was 3.87 µM (inactive); in assay [3], 4.17 µM (inactive); in assay [4] it was 3.25 µM (inactive); in [5], 3.24 µM (inactive); in [6], 4.57 µM (inactive). The GI50 in assay [7] is 3.37 µM (inactive); in assay [8], 3.83 µM (inactive); in assay [9], 3.82 µM (inactive); in assay [10], 4.2 µM (inactive); in assay [11], 9.71 µM (inactive); in assay [12], 11.6 µM (inactive). Besides, the GI50 is 0.966 µM (active) in [13]; 2.18 µM (inactive) in [14]; 5.56 µM (inactive) in assay [15]; 2.27 µM (inactive) in assay [16]; 5 µM (inactive) in [17]; 5.12 µM (inactive) in [18]. Moreover, in [19], the GI50 was 4.2 µM (inactive).
`CCCNC(=O)c1cc(NC(=O)c2cc(NC(=O)CCS(=O)(=O)OC)cn2C)cn1C`: the GI50 in assay [1] is > 100 µM (inactive); in [2], 5.2 µM (inactive); in assay [3] it was > 100 µM (inactive); in [4] it was 6.27 µM (inactive); in assay [5] it was > 69.3 µM (inactive); in [6], > 91 µM (inactive). For the same compound, the GI50 in [7] is 10.2 µM (inactive); in assay [8], 6.62 µM (inactive); in assay [9], 5.11 µM (inactive); in assay [10], 43.5 µM (inactive); in assay [11] it was 3.68 µM (inactive); in assay [12] it was 26.5 µM (inactive). The GI50 in assay [13] was 17.4 µM (inactive); in assay [14] it was > 100 µM (inactive); in [15], 67.5 µM (inactive); in [16] it was 1.87 µM (inactive); in assay [17] it was 20.6 µM (inactive); in assay [18], 14.6 µM (inactive). Moreover, the GI50 in [19] is 25.8 µM (inactive).
Regarding `Cc1ccc(C(=O)/C=C2/Nc3ccccc3NC2=O)c(C)c1`, the GI50 was 7.89 µM (inactive) in assay [1]; 61.5 µM (inactive) in [2]; 25.2 µM (inactive) in assay [3]; 27.2 µM (inactive) in [4]; 0.228 µM (active) in assay [5]; 13.7 µM (inactive) in assay [6]. Also, the GI50 is 18.2 µM (inactive) in assay [7]; 11.2 µM (inactive) in [8]; 22.1 µM (inactive) in assay [9]; 29.4 µM (inactive) in assay [10]; 35.4 µM (inactive) in assay [11]; 2.7 µM (inactive) in assay [12]. For the same compound, the GI50 was 16.1 µM (inactive) in assay [13]; 29.4 µM (inactive) in [14]; 5.58 µM (inactive) in assay [15]; 7.73 µM (inactive) in [16]; 6.32 µM (inactive) in assay [17]; 22.6 µM (inactive) in assay [18]. In addition, in [19], the GI50 is 5.62 µM (inactive).
In the case of `COc1ccc(-c2cc(=O)c3c(O)c(OC)c(OC)c(OC)c3o2)cc1OC` [5-DEMETHYLNOBILETIN], the GI50 in assay [1] was 14.5 µM (inactive); in assay [2] it was > 100 µM (inactive); in assay [4] it was > 10 µM (inactive); in assay [5], > 100 µM (inactive); in assay [6] it was > 100 µM (inactive); in [7], > 100 µM (inactive). Moreover, the GI50 in [8] was 39.7 µM (inactive); in assay [9], 4.28 µM (inactive); in [10], > 100 µM (inactive); in [11] it was 50.9 µM (inactive); in assay [12], > 100 µM (inactive); in assay [13] it was > 100 µM (inactive). Also, the GI50 in [14] is > 100 µM (inactive); in assay [15], 67.1 µM (inactive); in [16], 8.97 µM (inactive); in [18], 47.8 µM (inactive); in [19], 19.5 µM (inactive).
With `CC(=O)OC(Cc1c(O)c2c(C)cccc2oc1=O)C(C)(C)O` (stereo unspecified), the GI50 in assay [1] was 92.3 µM (inactive); in assay [2], > 100 µM (inactive); in assay [3], > 100 µM (inactive); in [4], > 100 µM (inactive); in assay [5], > 100 µM (inactive); in [6], > 100 µM (inactive). Besides, the GI50 is 51.4 µM (inactive) in [7]; > 100 µM (inactive) in assay [8]; 60.4 µM (inactive) in [9]; > 100 µM (inactive) in assay [10]; > 100 µM (inactive) in [11]; > 100 µM (inactive) in [13]. For the same compound, the GI50 is 55.1 µM (inactive) in assay [14]; > 100 µM (inactive) in [15]; > 100 µM (inactive) in assay [16]; 76 µM (inactive) in [17]; > 100 µM (inactive) in assay [18]; > 100 µM (inactive) in assay [19].
Take `CC(C)(O)/C1=C/C=C/CCCCCCCCCC1`: the GI50 in assay [1] was > 100 µM (inactive); in [2], 37.8 µM (inactive); in assay [3], 33.3 µM (inactive); in assay [4] it was > 100 µM (inactive); in assay [5], > 100 µM (inactive); in [7], 87.1 µM (inactive). Besides, the GI50 in [8] was > 100 µM (inactive); in assay [9] it was > 100 µM (inactive); in assay [10], > 100 µM (inactive); in assay [11] it was > 100 µM (inactive); in assay [13], > 100 µM (inactive); in assay [14], 34 µM (inactive). For the same compound, the GI50 is > 100 µM (inactive) in assay [15]; 95.9 µM (inactive) in assay [16]; 0.387 µM (active) in assay [17]; > 100 µM (inactive) in assay [18]; > 100 µM (inactive) in [19].
For `C=C(C)COC1CCCCO1` (stereo unspecified), the GI50 in assay [1] is > 100 µM (inactive); in [2] it was 41.6 µM (inactive); in assay [3], > 100 µM (inactive); in assay [4], > 100 µM (inactive); in assay [5] it was > 100 µM (inactive); in [6] it was > 100 µM (inactive). The GI50 in assay [7], in [8], in assay [9], in assay [10], in assay [11] and in assay [13] was > 100 µM (inactive) each time. In addition, the GI50 in assay [14] was > 10 µM (inactive); in assay [15], > 100 µM (inactive); in assay [16], > 100 µM (inactive); in [17] it was > 100 µM (inactive); in assay [18] it was > 100 µM (inactive); in [19], > 100 µM (inactive).
With `CC[C@@H](C)[C@H](NC(=O)[C@H](Cc1ccccc1)NCC(F)(F)F)C(=O)OC(C)(C)C`, the GI50 is > 100 µM (inactive) in assay [1]; > 100 µM (inactive) in assay [2]; > 100 µM (inactive) in assay [4]; > 100 µM (inactive) in assay [5]; > 100 µM (inactive) in assay [6]; 91.6 µM (inactive) in [7]. In addition, the GI50 in assay [8] is > 100 µM (inactive); in assay [9] it was 25.6 µM (inactive); in [10], > 100 µM (inactive); in assay [11], > 100 µM (inactive); in [12], 82.2 µM (inactive); in assay [13], > 100 µM (inactive). The GI50 in [14], in [15], in assay [16], in [18] and in assay [19] was > 100 µM (inactive) throughout.
